Measurements: US20050106141A1, “Hairless protein-interacting partner complexes and methods thereof for the beautification and/or improvement of mammalian skin” (The Procter & Gamble Company, priority 2003, published 2005)
Read-outs that look alike come from different tables or passages of the source.

Tests used:
[1] = target: T1, BD-VDR><AD-TRβ interaction (Mus musculus, UniProt P48281); experiment: Yeast two-hybrid alpha-galactosidase reporter assay, BD-VDR interaction with AD-TRβ; assay type: cell-based; conditions: assay of example 3
T1 construct: expressed in transfected cells; host or cells: yeast
T1 sequence (P48281 1-422): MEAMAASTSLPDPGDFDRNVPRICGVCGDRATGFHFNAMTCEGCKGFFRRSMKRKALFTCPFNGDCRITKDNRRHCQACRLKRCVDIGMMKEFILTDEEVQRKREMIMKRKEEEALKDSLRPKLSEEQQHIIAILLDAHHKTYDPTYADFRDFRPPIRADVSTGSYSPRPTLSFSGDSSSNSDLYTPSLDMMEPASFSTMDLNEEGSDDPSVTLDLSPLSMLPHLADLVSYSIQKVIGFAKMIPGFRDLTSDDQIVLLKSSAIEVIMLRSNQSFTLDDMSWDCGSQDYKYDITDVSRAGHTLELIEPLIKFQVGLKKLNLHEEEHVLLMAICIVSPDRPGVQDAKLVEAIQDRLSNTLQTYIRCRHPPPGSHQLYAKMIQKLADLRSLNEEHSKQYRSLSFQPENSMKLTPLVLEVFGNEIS
T1 sequence (P10828 1-461 partner): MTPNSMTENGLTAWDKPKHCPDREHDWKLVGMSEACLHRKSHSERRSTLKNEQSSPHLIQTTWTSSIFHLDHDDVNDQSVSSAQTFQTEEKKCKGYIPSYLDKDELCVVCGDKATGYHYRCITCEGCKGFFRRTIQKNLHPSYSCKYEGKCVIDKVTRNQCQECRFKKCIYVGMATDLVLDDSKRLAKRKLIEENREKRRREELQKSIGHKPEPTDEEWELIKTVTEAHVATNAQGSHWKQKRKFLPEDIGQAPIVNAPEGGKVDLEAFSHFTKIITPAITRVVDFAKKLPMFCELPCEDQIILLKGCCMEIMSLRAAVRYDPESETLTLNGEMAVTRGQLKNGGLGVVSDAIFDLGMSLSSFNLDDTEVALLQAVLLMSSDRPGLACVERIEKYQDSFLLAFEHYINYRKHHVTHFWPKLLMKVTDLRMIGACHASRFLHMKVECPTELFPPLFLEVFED
Method: Increase or decrease in alpha-galactosidase activity of AH109 (BD-HRt><AD-IP) strain grown in Leu, Trp, His TDO in the presence of various test compounds is used to screen for agonists or antagonists of BD-HRt><AD-IP interaction. A diverse library of compounds is screened.
Microtiter plates with TDO media seeded with freshly cultured yeast cells at 0.05 optical density at 650 nm (OD650) are treated with various test compounds at 100-400 uM or vehicle (DMSO) control. Stock solutions of test compounds at 10-20 mM are made in DMSO and tested at 100-400 μM final concentration. The final assay mixture comprising of cells, TDO and compound (or DMSO alone) is adjusted to be 100 ul and the amount of DMSO is maintained at or below 2%. The plates are incubated for 3-4 days without shaking at 25° C. Plates are briefly agitated to obtain uniform suspension of cells prior to addition of assay buffer. […] Plates are briefly agitated to obtain uniform suspension of cells and absorbance at both 650 nM (OD650)ref and 410 nm (OD410)ref are measured. […] For color development 100 ul of 0.1 M sodium carbonate solution is added and after standing for at least 1 minute, OD410exp is measured.

LXR [2] = conditions: oral administration, hamsters; cited from earlier work
LXR [3] = conditions: oral administration, mice; cited from earlier work

Compound	enhancement of BD-VDR / AD-TRβ interaction [1]	plasma phospholipid levels (LXR [2])	plasma triglyceride levels (LXR [2])	plasma phospholipid levels (LXR [3])	plasma triglyceride levels (LXR [3])
C=C1CC[C@H](O)C/C1=C/C=C1\CCC[C@]2(C)[C@@H]([C@H](C)CCCC(C)(C)O)CC[C@@H]12 [25 HC, 25-hydroxy cholecalciferol]	approximately 2 fold				
O=S(=O)(c1ccccc1)N(CC(F)(F)F)c1ccc(C(O)(C(F)(F)F)C(F)(F)F)cc1 [T0901317]		increased	increased	increased	increased
